Results from ChEMBL document CHEMBL1759929, “Synthesis and pharmacological evaluation of novel benzoylazole-based PPAR α/γ activators” (Bioorg Med Chem Lett, 2011).

What was measured:
[1] = target: T1, Peroxisome proliferator-activated receptor alpha (Mus musculus) (UniProt P23204); assay: Partial agonist activity at mouse PPARalpha expressed in CHO cells co-transfected with Gal4-responsive luciferase reporter plasmid after 24 hrs by transactivation assay relative to fenofibric acid; type: functional, cell-based
T1 sequence (whole entry): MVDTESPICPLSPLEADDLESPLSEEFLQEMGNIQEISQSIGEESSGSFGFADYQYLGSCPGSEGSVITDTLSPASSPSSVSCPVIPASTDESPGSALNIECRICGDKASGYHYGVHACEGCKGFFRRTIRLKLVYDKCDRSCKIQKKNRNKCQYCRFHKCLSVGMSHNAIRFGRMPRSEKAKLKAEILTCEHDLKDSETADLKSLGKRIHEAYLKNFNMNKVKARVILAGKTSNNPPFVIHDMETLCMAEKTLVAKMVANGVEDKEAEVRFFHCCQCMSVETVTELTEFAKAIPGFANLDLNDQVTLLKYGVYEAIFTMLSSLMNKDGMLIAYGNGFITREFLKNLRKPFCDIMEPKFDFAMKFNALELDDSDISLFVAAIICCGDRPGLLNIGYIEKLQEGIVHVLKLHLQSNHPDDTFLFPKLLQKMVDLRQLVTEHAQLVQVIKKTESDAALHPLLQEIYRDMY

Homo sapiens = organism: Homo sapiens; assay: Selectivity ratio of EC50 for human PPARalpha to EC50 for human PPARgamma
[2] = Selectivity ratio of EC50 for mouse PPARalpha to EC50 for human PPARgamma
[3] = target: T2, Peroxisome proliferator-activated receptor alpha (Homo sapiens) (UniProt Q07869); assay: Partial agonist activity at human PPARalpha expressed in CHO cells co-transfected with Gal4-responsive luciferase reporter plasmid after 24 hrs by transactivation assay relative to fenofibric acid; type: functional, cell-based; design: concentration or dose not given beside the values
T2 sequence (whole entry): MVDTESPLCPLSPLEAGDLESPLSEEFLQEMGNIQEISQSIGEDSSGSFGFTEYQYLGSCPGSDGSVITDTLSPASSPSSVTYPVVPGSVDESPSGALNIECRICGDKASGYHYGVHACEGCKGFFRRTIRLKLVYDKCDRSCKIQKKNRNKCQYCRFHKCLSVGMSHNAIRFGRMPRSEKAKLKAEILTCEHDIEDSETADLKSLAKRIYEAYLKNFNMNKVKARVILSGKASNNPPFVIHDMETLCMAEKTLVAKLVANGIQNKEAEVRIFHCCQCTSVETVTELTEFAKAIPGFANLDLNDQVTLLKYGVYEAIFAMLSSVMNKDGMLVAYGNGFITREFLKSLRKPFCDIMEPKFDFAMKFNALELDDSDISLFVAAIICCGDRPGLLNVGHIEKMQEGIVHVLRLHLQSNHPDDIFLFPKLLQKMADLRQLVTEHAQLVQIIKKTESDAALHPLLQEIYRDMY

[4] = target: T3, Peroxisome proliferator-activated receptor gamma (Homo sapiens, UniProt P37231); assay: Partial agonist activity at human PPARgamma expressed in CHO cells co-transfected with Gal4-responsive luciferase reporter plasmid after 24 hrs by transactivation assay; type: functional, cell-based
T3 sequence (P37231 whole entry): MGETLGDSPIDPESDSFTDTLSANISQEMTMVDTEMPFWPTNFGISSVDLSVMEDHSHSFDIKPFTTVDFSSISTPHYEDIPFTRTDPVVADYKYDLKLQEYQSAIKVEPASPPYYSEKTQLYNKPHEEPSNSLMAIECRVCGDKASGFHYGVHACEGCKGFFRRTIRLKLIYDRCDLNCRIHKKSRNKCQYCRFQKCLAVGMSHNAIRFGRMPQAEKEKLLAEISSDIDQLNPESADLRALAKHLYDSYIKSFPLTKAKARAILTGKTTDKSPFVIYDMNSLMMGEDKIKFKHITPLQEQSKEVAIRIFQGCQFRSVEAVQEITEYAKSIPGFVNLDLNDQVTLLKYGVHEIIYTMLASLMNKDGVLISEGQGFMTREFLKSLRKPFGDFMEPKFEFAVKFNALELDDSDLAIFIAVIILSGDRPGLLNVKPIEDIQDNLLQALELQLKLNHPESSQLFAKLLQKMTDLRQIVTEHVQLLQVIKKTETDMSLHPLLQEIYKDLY

[5] = target: T4, Peroxisome proliferator-activated receptor alpha (Homo sapiens, UniProt Q07869); assay: Partial agonist activity at human PPARalpha expressed in CHO cells co-transfected with Gal4-responsive luciferase reporter plasmid after 24 hrs by transactivation assay; type: functional, cell-based
T4 sequence (Q07869 whole entry): T2 sequence (whole entry)

Mus musculus [6] = assay: Antidiabetic effect in db/db mouse assessed as reduction in plasma glucose level at 30 mg/kg/day, po administered daily for 14 days; type: functional; conditions: 336 h
Mus musculus [7] = assay: Antidiabetic effect in db/db mouse assessed as reduction in plasma triglyceride level at 30 mg/kg/day, po administered daily for 14 days; type: functional; conditions: 336 h
Mus musculus [8] = assay: Antidiabetic effect in db/db mouse assessed as increase in HDL cholesterol level at 30 mg/kg/day, po administered daily for 14 days; type: functional; conditions: 336 h
Mus musculus [9] = assay: Toxicity in db/db mouse assessed as body weight gain at 30 mg/kg/day, po administered daily for 14 days relative to control; type: organism-based; design: route oral; conditions: in vivo, 336 h
[10] = Cmax in rat at 10 mg/kg, po; type: ADME, organism-based; design: dose 10 mg/kg, route oral; conditions: in vivo
[11] = Oral bioavailability in rat at 10 mg/kg; type: ADME, organism-based; conditions: in vivo
[12] = Clearance in rat at 1 mg/kg, iv; type: ADME, organism-based; design: dose 1 mg/kg, route intravenous; conditions: in vivo
[13] = Volume of distribution in rat at 1 mg/kg, iv; type: ADME, organism-based; design: dose 1 mg/kg, route intravenous; conditions: in vivo
[14] = Half life in rat at 1 mg/kg, iv; type: ADME, organism-based; design: dose 1 mg/kg, route intravenous; conditions: in vivo
Mus musculus [15] = assay: Toxicity in db/db mouse assessed as effect on food intake at 30 mg/kg/day, po administered daily for 14 days relative to control; type: organism-based; design: route oral; conditions: in vivo, 336 h

`Cc1ccc(C(=O)c2nc3ccccc3n2/C=C/c2cccc(OC(C)(C)C(=O)O)c2)cc1` [listing 1 of 2 here] gave an Activity [1] of 77%, a Ratio EC50 (Homo sapiens) of 18 and a Ratio EC50 [2] of 13. For the same molecule, the Activity [3] was 44%.
`CC(C)(Oc1ccc(C(=O)c2ccc(Cl)cc2)cc1)C(=O)O` showed an Activity [3] of 100%.
For `Cc1ccc(C(=O)c2nc3ccccc3n2C/C=C/c2cccc(OC(C)(C)C(=O)O)c2)cc1`, the EC50 [4] was 1.7 µM, the EC50 [5] was 3.6 µM and the Activity [3] was 42%.
Work on `Cc1ccc(C(=O)c2nccn2C/C=C/c2cccc(OC(C)(C)C(=O)O)c2)cc1` yielded an EC50 [4] of 12 µM, an EC50 [5] of 0.62 µM and an Activity [3] of 56%.
With `CCc1ccc(CCOc2ccc(CC3SC(=O)NC3=O)cc2)nc1` (centres undefined) [PIOGLITAZONE] the inhibition in vivo at 30 mg/kg/day (Mus musculus [6]) was 46%, the inhibition in vivo at 30 mg/kg/day (Mus musculus [7]) was 69% and the inhibition in vivo at 30 mg/kg/day (Mus musculus [8]) was 10%. For the same molecule, the Activity (Mus musculus [9]) was 17%.
`Cc1ccc(C(=O)c2nc3ccccc3n2/C=C/c2cccc(OC(C)(C)C(=O)[O-])c2)cc1.[Na+]` showed a Cmax [10] of 4340 ng/mL, a bioavailability [11] of 110% and a clearance [12] of 3.48 mL/min/kg. It also gave a Vd [13] of 0.747 L/kg, a half-life [14] of 1.45 h and an inhibition in vivo at 30 mg/kg/day (Mus musculus [6]) of 60%. For the same molecule, the inhibition in vivo at 30 mg/kg/day (Mus musculus [7]) was 86%, the inhibition in vivo at 30 mg/kg/day (Mus musculus [8]) was 38% and the Activity (Mus musculus [9]) was 11%. For the same molecule, the Activity (Mus musculus [15]) was “Non-toxic”.
`Cc1ccc(C(=O)c2nccn2C/C=C/c2cccc(OCC(=O)O)c2)cc1` gave an EC50 [4] greater than 10 µM and an EC50 [5] greater than 10 µM.
Work on `Cc1ccc(C(=O)c2nc3ccccc3n2-c2cccc(OC(C)(C)C(=O)O)c2)cc1` yielded an EC50 [4] of 3.3 µM.
Molecule `Cc1ccc(C(=O)c2nc3ccccc3n2/C=C/c2cccc(OC(C)(C)C(=O)O)c2)cc1` [listing 2 of 2 here] has an EC50 [4] of 0.13 µM and an EC50 [5] of 2.4 µM.
`Cc1ccc(C(=O)c2nc3ccccc3n2C/C=C/c2cccc(OCC(=O)O)c2)cc1` gave an EC50 [4] of 4.6 µM and an EC50 [5] greater than 10 µM.
Work on `Cc1ccc(C(=O)c2nc3c(n2C/C=C/c2cccc(OC(C)(C)C(=O)O)c2)CCCC3)cc1` yielded an EC50 [4] of 3 µM, an EC50 [5] of 3.6 µM and an Activity [3] of 60%.
Molecule `Cc1ccc(C(=O)c2nc(C)c(C)n2C/C=C/c2cccc(OC(C)(C)C(=O)O)c2)cc1` has an EC50 [4] of 4.8 µM, an EC50 [5] of 3.6 µM and an Activity [3] of 60%.
`Cc1ccc(C(=O)c2nc3ccccc3n2Cc2cccc(OC(C)(C)C(=O)O)c2)cc1` gave an EC50 [4] of 6 µM.
